Assay results taken from US20230021483A1, “[…] […] METHOD AND CLASSIFICATION OF PHARMACEUTICAL COMPONENTS BY USING TRANSCRIPTOMES” (National Institutes of Biomedical Innovation, Health and …, priority 2016, published 2023).

Tests used:
[1] = test system: preferentially upregulated genes in LV, SP, LN; assay: Z-score-based differential gene expression analysis (adjuvant group- or adjuvant-associated genes, 40 module mapping, TargetMine annotation); type: in vivo, C57BL/6 mice; design: key to z sum, 1458589_at ---: sum of the per-gene fold-change z-scores of the triplicate samples; settings: for Adar 1425405_a_at (Group G1, Modules 20) / Adar 1434268_at (Group G1, Modules 20) / Ddx58 1436562_at (Group G1, Modules 20) / Ddx58 1456890_at (Group G1, Modules 20) / Eif2ak2 1422005_at (Group G1, Modules 20) / G3bp2 1421323_a_at (Group G1, Modules 20) / Gm9706///Isg15 1431591_s_at (Group G1, Modules 20) / H2-T10///H2-T22///H2-T9 1449875_s_at (Group G1, Modules 20) / Ifih1 1426276_at (Group G1, Modules 20) / Ifit1 1450783_at (Group G1, Modules 20) / Ifit3 1449025_at (Group G1, Modules 20) / Irf7 1417244_a_at (Group G1, Modules 20) / Irgm1 1418825_at (Group G1, Modules 20) / Mndal 1426906_at (Group G1, Modules 20) / Pml 1448757_at (Group G1, Modules 20) / Pml 1456103_at (Group G1, Modules 20) / Rnf213 1455500_at (Group G1, Modules 20) / Rsad2 1436058_at (Group G1, Modules 20) / Shisa5 1423986_a_at (Group G1, Modules 20) / Shisa5 1437503_a_at (Group G1, Modules 20) / Stat1 1450033_a_at (Group G1, Modules 20) / Stat1 1450034_at (Group G1, Modules 20) / Tdrd7 1426716_at (Group G1, Modules 20) / Tor1aip2 1418115_s_at (Group G1, Modules 20) / Tor1aip2 1418116_at (Group G1, Modules 20) / Tor1aip2 1435526_at (Group G1, Modules 20) / Trim12a 1437432_a_at (Group G1, Modules 20) / Uba7 1426970_a_at (Group G1, Modules 20): LV
Method in brief: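 Per-sample fold-change values converted to gene-wise z-scores within each organ's data set, then triplicate z-scores summed per adjuvant. Genes with summed score >3 taken as preferentially expressed; gene groups defined by combined per-adjuvant z-score thresholds (z>1 to z>3) specific to each organ.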

liver (LV) = assay: Whole organ transcriptome (GeneChip microarray) of liver 6 h after adjuvant administration: sDEGs, hierarchical clustering; type: in vivo, C57BL/6 mice; settings: liver; on adjuvant group (cluster) in LV: key: G1 (interferon signaling); G2 (metabolism of lipids and lipoproteins); G3 (response to stress); G4 (response to wounding); G5 (phosphate-containing compound metabolic process); G6 (phagosome)

## Nc1nc2c(ncn2[C@@H]2O[C@@H]3COP(=O)(O)O[C@H]4[C@@H](O)[C@H](n5cnc6c(N)ncnc65)O[C@@H]4COP(=O)(O)O[C@@H]2[C@@H]3O)c(=O)[nH]1 [cGAMP, Cyclic [G(2′,5′)pA(3′,5′)p]]
[1]; ID, LN, Modules 26
  z sum, 1428027_at LOC100653389: −1.72
[1]; ID, LN, Modules 27
  z sum, 1419721_at Niacr1: −2.05
[1]; ID, LN, Modules 29
  z sum, 1418424_at Tnfaip6: −2.05
  z sum, 1419534_at Olr1: −2.35
  z sum, 1421457_a_at Samsn1: −1.88
  z sum, 1422305_at Ifnb1: −1.97
  z sum, 1423028_at Ifna2: −1.92
  z sum, 1425837_a_at Ccrn4l: −2.11
  z sum, 1436387_at C330006P03Rik///Homer1: −1.73
  z sum, 1439349_at Sbno2: −2.1
  z sum, 1444010_at Eif4e: −1.99
  z sum, 1448325_at Ppp1r15a: −2.32
  z sum, 1449311_at Bach1: −1.95
  z sum, 1450297_at Il6: −2.07
  z sum, 1455197_at Rnd1: −2.12
  z sum, 1455899_x_at Socs3: −2.14
[1]; ID, LN, Modules 34
  z sum, 1417252_at Ptgs2: −2.41
  z sum, 1417263_at Ptgs2: −2.18
  z sum, 1419132_at Tfr2: −1.86
  z sum, 1421473_at Il1a: −2.25
[1]; ID, LN, Modules 35
  z sum, 1439981_at Tespa1: −2.15
  z sum, 1441843_s_at 5230400M03Rik: −1.71
  z sum, 1442556_at ---: −1.95
  z sum, 1443414_at C78513: −1.91
  z sum, 1444598_at ---: −1.93
  z sum, 1445534_at ---: −1.93
  z sum, 1446245_at ---: −1.58
  z sum, 1457944_at ---: −1.78
  z sum, 1458376_at B930025B16Rik: −1.85
  z sum, 1459144_at ---: −1.91
[1]; ID, LN, Modules 36
  z sum, 1425687_at Cflar: −2.21
  z sum, 1427736_a_at Ccrl2: −1.74
  z sum, 1449169_at Has2: −1.67
  z sum, 1453636_at Pcgf5: −1.86
  z sum, 1457888_at ---: −1.91
[1]; ID, LN, Modules 37
  z sum, 1419508_at Ripk1: −1.9
  z sum, 1421578_at Ccl4: −2.14
  z sum, 1421679_a_at Cdkn1a: −1.99
  z sum, 1424638_at Cdkn1a: −2.22
  z sum, 1433508_at Klf6: −2.41
  z sum, 1434350_at Csrnp1: −1.97
  z sum, 1439680_at Tnfsf10: −1.65
  z sum, 1448724_at Cish: −2.38
  z sum, 1451340_at Arid5a: −1.67
  z sum, 1453851_a_at Gadd45g: −1.96
  z sum, 1457404_at Nfkbiz: −1.92
  z sum, 1458589_at ---: −2.36
[1]; ID, LN, Modules 40
  z sum, 1422054_a_at 5kil: −2.23
  z sum, 1428735_at Cd69: −1.52
[1]; ID, sample x1
  Adar 1425405_a_at (Group G1, Modules 20): 2.95
  Adar 1434268_at (Group G1, Modules 20): 2.22
  Ddx58 1436562_at (Group G1, Modules 20): 2.04
  Ddx58 1456890_at (Group G1, Modules 20): 2.26
  Eif2ak2 1422005_at (Group G1, Modules 20): 3.11
  G3bp2 1421323_a_at (Group G1, Modules 20): 3.19
  Gm9706///Isg15 1431591_s_at (Group G1, Modules 20): 2.13
  H2-T10///H2-T22///H2-T9 1449875_s_at (Group G1, Modules 20): 2.29
  Ifih1 1426276_at (Group G1, Modules 20): 1.73
  Ifit1 1450783_at (Group G1, Modules 20): 2.75
  Ifit3 1449025_at (Group G1, Modules 20): 2.13
  Irf7 1417244_a_at (Group G1, Modules 20): 1.6
  Irgm1 1418825_at (Group G1, Modules 20): 2.25
  Mndal 1426906_at (Group G1, Modules 20): 2.08
  Pml 1448757_at (Group G1, Modules 20): 2.13
  Pml 1456103_at (Group G1, Modules 20): 1.62
  Rnf213 1455500_at (Group G1, Modules 20): 2.58
  Rsad2 1436058_at (Group G1, Modules 20): 2.08
  Shisa5 1423986_a_at (Group G1, Modules 20): 1.7
  Shisa5 1437503_a_at (Group G1, Modules 20): 1.57
  Stat1 1450033_a_at (Group G1, Modules 20): 3.11
  Stat1 1450034_at (Group G1, Modules 20): 2.46
  Tdrd7 1426716_at (Group G1, Modules 20): 2.18
  Tor1aip2 1418115_s_at (Group G1, Modules 20): 2.9
  Tor1aip2 1418116_at (Group G1, Modules 20): 2.41
  Tor1aip2 1435526_at (Group G1, Modules 20): 2.32
  Trim12a 1437432_a_at (Group G1, Modules 20): 2.07
  Uba7 1426970_a_at (Group G1, Modules 20): 2.06
[1]; ID, sample x2
  Adar 1425405_a_at (Group G1, Modules 20): 2.38
  Adar 1434268_at (Group G1, Modules 20): 1.71
  Ddx58 1436562_at (Group G1, Modules 20): 2.13
  Ddx58 1456890_at (Group G1, Modules 20): 2.28
  Eif2ak2 1422005_at (Group G1, Modules 20): 2.21
  G3bp2 1421323_a_at (Group G1, Modules 20): 2.6
  Gm9706///Isg15 1431591_s_at (Group G1, Modules 20): 1.62
  H2-T10///H2-T22///H2-T9 1449875_s_at (Group G1, Modules 20): 1.8
  Ifih1 1426276_at (Group G1, Modules 20): 1.62
  Ifit1 1450783_at (Group G1, Modules 20): 2.63
  Ifit3 1449025_at (Group G1, Modules 20): 1.95
  Irf7 1417244_a_at (Group G1, Modules 20): 1.62
  Irgm1 1418825_at (Group G1, Modules 20): 2.09
  Mndal 1426906_at (Group G1, Modules 20): 2.11
  Pml 1448757_at (Group G1, Modules 20): 2.02
  Pml 1456103_at (Group G1, Modules 20): 1.48
  Rnf213 1455500_at (Group G1, Modules 20): 2.34
  Rsad2 1436058_at (Group G1, Modules 20): 1.89
  Shisa5 1423986_a_at (Group G1, Modules 20): 1.43
  Shisa5 1437503_a_at (Group G1, Modules 20): 1.63
  Stat1 1450033_a_at (Group G1, Modules 20): 2.52
  Stat1 1450034_at (Group G1, Modules 20): 1.97
  Tdrd7 1426716_at (Group G1, Modules 20): 2.34
  Tor1aip2 1418115_s_at (Group G1, Modules 20): 2.68
  Tor1aip2 1418116_at (Group G1, Modules 20): 2.58
  Tor1aip2 1435526_at (Group G1, Modules 20): 2.28
  Trim12a 1437432_a_at (Group G1, Modules 20): 1.46
  Uba7 1426970_a_at (Group G1, Modules 20): 1.28
[1]; ID, sample x3
  Adar 1425405_a_at (Group G1, Modules 20): 2.37
  Adar 1434268_at (Group G1, Modules 20): 1.8
  Ddx58 1436562_at (Group G1, Modules 20): 2.6
  Ddx58 1456890_at (Group G1, Modules 20): 2.38
  Eif2ak2 1422005_at (Group G1, Modules 20): 2.73
  G3bp2 1421323_a_at (Group G1, Modules 20): 2.43
  Gm9706///Isg15 1431591_s_at (Group G1, Modules 20): 1.73
  H2-T10///H2-T22///H2-T9 1449875_s_at (Group G1, Modules 20): 2.45
  Ifih1 1426276_at (Group G1, Modules 20): 1.66
  Ifit1 1450783_at (Group G1, Modules 20): 2.63
  Ifit3 1449025_at (Group G1, Modules 20): 2.06
  Irf7 1417244_a_at (Group G1, Modules 20): 1.62
  Irgm1 1418825_at (Group G1, Modules 20): 2.14
  Mndal 1426906_at (Group G1, Modules 20): 2.19
  Pml 1448757_at (Group G1, Modules 20): 2.49
  Pml 1456103_at (Group G1, Modules 20): 1.62
  Rnf213 1455500_at (Group G1, Modules 20): 2.18
  Rsad2 1436058_at (Group G1, Modules 20): 1.75
  Shisa5 1423986_a_at (Group G1, Modules 20): 2.36
  Shisa5 1437503_a_at (Group G1, Modules 20): 2.09
  Stat1 1450033_a_at (Group G1, Modules 20): 2.85
  Stat1 1450034_at (Group G1, Modules 20): 2.26
  Tdrd7 1426716_at (Group G1, Modules 20): 2.5
  Tor1aip2 1418115_s_at (Group G1, Modules 20): 2.71
  Tor1aip2 1418116_at (Group G1, Modules 20): 2.68
  Tor1aip2 1435526_at (Group G1, Modules 20): 2.32
  Trim12a 1437432_a_at (Group G1, Modules 20): 1.61
  Uba7 1426970_a_at (Group G1, Modules 20): 1.91
[1]; z-score selected genes, TargetMine and IPA upstream cytokine analyses
  adjuvant group-associated biological features: strongly associated with type I and type II interferon responses
Liver (LV); hierarchical clustering
  adjuvant group (cluster) in LV: G1
Liver (LV); i.d. administration, fold change <0.667, p<0.01, customized PA call=1, 6 h after adjuvant
  Number of gene probes with statistically significant changes (sDEGs), LV, Down: 248
Liver (LV); i.d. administration, fold change >1.5, p<0.01, customized PA call=1, 6 h after adjuvant
  Number of gene probes with statistically significant changes (sDEGs), LV, Up: 841
